In the NIST ThermoML archive (doi:10.1021/je0496950):
± gives the expanded uncertainty stated by the source.

Assay: mn = molality of the nth substance listed, in mol/kg
Conditions: 101 kPa, Liquid; for speed of sound: Pulse-echo method

[O-][Cl+3]([O-])([O-])[O-].[O-][Cl+3]([O-])([O-])[O-].[Zn+2] [zinc perchlorate] + CC#N
Conditions	mass density, 288.13 K [kg/m3]	mass density, 293.15 K [kg/m3]	mass density, 298.15 K [kg/m3]	mass density, 303.15 K [kg/m3]	mass density, 308.15 K [kg/m3]	mass density, 313.15 K [kg/m3]	mass density, 323.15 K [kg/m3]	speed of sound, 298.15 K [m/s]
m1 = 0.05169	797.728 ± 0.73	792.369 ± 0.73	786.992 ± 0.74	781.587 ± 0.75	776.154 ± 0.76	770.69 ± 0.76	759.656 ± 0.78	1280.2 ± 1.4
m1 = 0.09336	806.167 ± 0.72	800.821 ± 0.72	795.456 ± 0.73	790.063 ± 0.74	784.645 ± 0.74	779.192 ± 0.75	768.19 ± 0.77	1281.9 ± 1.4
m1 = 0.1233	812.307 ± 0.71	806.971 ± 0.72	801.611 ± 0.72	796.227 ± 0.73	790.815 ± 0.74	785.374 ± 0.74	774.39 ± 0.76	1283.1 ± 1.4
m1 = 0.1524	818.329 ± 0.7	812.997 ± 0.71	807.644 ± 0.72	802.268 ± 0.72	796.864 ± 0.73	791.433 ± 0.74	780.466 ± 0.75	1284.2 ± 1.4
m1 = 0.1817	824.45 ± 0.7	819.125 ± 0.7	813.78 ± 0.71	808.412 ± 0.72	803.019 ± 0.72	797.595 ± 0.73	786.657 ± 0.74	1285.4 ± 1.4
m1 = 0.2106	830.536 ± 0.69	825.218 ± 0.7	819.877 ± 0.7	814.514 ± 0.71	809.128 ± 0.72	803.712 ± 0.72	792.788 ± 0.74	1286.8 ± 1.4
m1 = 0.2379	836.415 ± 0.68	831.101 ± 0.69	825.768 ± 0.7	820.412 ± 0.7	815.033 ± 0.71	809.624 ± 0.72	798.715 ± 0.73	1287.9 ± 1.4
m1 = 0.2668	842.682 ± 0.68	837.373 ± 0.68	832.046 ± 0.69	826.696 ± 0.7	821.325 ± 0.7	815.925 ± 0.71	805.037 ± 0.72	1289 ± 1.4
m1 = 0.2944	848.641 ± 0.67	843.338 ± 0.68	838.017 ± 0.68	832.675 ± 0.69	827.308 ± 0.69	821.916 ± 0.7	811.045 ± 0.71	1290.3 ± 1.4

CC#N [acetonitrile] + [Mn+2].[O-][Cl+3]([O-])([O-])[O-].[O-][Cl+3]([O-])([O-])[O-]
m2 = 0
Conditions	mass density [kg/m3]
288.15 K	787.308 ± 0.74
293.15 K	781.932 ± 0.74
298.15 K	776.531 ± 0.75
303.15 K	771.102 ± 0.76
308.15 K	765.645 ± 0.77
313.15 K	760.156 ± 0.78
323.15 K	749.07 ± 0.79

CC#N [acetonitrile] + [Co+2].[O-][Cl+3]([O-])([O-])[O-].[O-][Cl+3]([O-])([O-])[O-]
m2 = 0
Conditions	mass density [kg/m3]
288.13 K	787.307 ± 0.74
293.15 K	781.933 ± 0.75
298.15 K	776.535 ± 0.76
303.15 K	771.114 ± 0.76
308.15 K	765.664 ± 0.77
313.15 K	760.181 ± 0.78
323.15 K	749.107 ± 0.79

[Mn+2].[O-][Cl+3]([O-])([O-])[O-].[O-][Cl+3]([O-])([O-])[O-] [manganese (II) perchlorate] + CC#N
Conditions	mass density, 288.15 K [kg/m3]	mass density, 293.15 K [kg/m3]	mass density, 298.15 K [kg/m3]	mass density, 303.15 K [kg/m3]	mass density, 308.15 K [kg/m3]	mass density, 313.15 K [kg/m3]	mass density, 323.15 K [kg/m3]	speed of sound, 298.15 K [m/s]
m1 = 0.07666	–	–	–	–	–	–	–	1282.8 ± 1.4
m1 = 0.08738	–	–	–	–	–	–	–	1283.5 ± 1.4
m1 = 0.1308	812.076 ± 0.7	806.744 ± 0.71	801.389 ± 0.72	796.009 ± 0.73	790.599 ± 0.73	785.164 ± 0.74	774.198 ± 0.76	1286 ± 1.4
m1 = 0.1732	820.267 ± 0.7	814.947 ± 0.7	809.604 ± 0.71	804.238 ± 0.72	798.846 ± 0.72	793.424 ± 0.73	782.485 ± 0.75	1288.4 ± 1.4
m1 = 0.216	828.628 ± 0.69	823.32 ± 0.69	817.989 ± 0.7	812.633 ± 0.71	807.252 ± 0.71	801.843 ± 0.72	790.933 ± 0.73	1290.8 ± 1.4
m1 = 0.257	836.778 ± 0.68	831.471 ± 0.69	826.148 ± 0.69	820.803 ± 0.7	815.431 ± 0.7	810.032 ± 0.71	799.145 ± 0.73	1293 ± 1.4
m1 = 0.298	845.062 ± 0.67	839.769 ± 0.68	834.455 ± 0.68	829.123 ± 0.69	823.764 ± 0.7	818.379 ± 0.7	807.522 ± 0.72	1295.3 ± 1.4
m1 = 0.3364	852.972 ± 0.66	847.683 ± 0.67	842.377 ± 0.67	837.051 ± 0.68	831.7 ± 0.69	826.326 ± 0.69	815.497 ± 0.71	1297.9 ± 1.4
m1 = 0.3745	860.854 ± 0.66	855.574 ± 0.66	850.277 ± 0.67	844.96 ± 0.67	839.624 ± 0.68	834.26 ± 0.69	823.454 ± 0.7	1300.3 ± 1.4
m1 = 0.4122	868.75 ± 0.65	863.479 ± 0.65	858.191 ± 0.66	852.884 ± 0.66	847.554 ± 0.67	842.203 ± 0.68	831.418 ± 0.69	1302.7 ± 1.4

CC#N [acetonitrile] + [Cu+2].[O-][Cl+3]([O-])([O-])[O-].[O-][Cl+3]([O-])([O-])[O-]
m2 = 0
Conditions	mass density [kg/m3]
288.13 K	787.308 ± 0.74
293.15 K	781.932 ± 0.75
298.15 K	776.532 ± 0.76
303.15 K	771.102 ± 0.76
308.15 K	765.645 ± 0.77
313.15 K	760.155 ± 0.78
323.15 K	749.067 ± 0.8

[Ni+2].[O-][Cl+3]([O-])([O-])[O-].[O-][Cl+3]([O-])([O-])[O-] [nickel perchlorate] + CC#N
Conditions	mass density, 288.13 K [kg/m3]	mass density, 293.15 K [kg/m3]	mass density, 298.15 K [kg/m3]	mass density, 303.15 K [kg/m3]	mass density, 308.15 K [kg/m3]	mass density, 313.15 K [kg/m3]	mass density, 323.15 K [kg/m3]	speed of sound, 298.15 K [m/s]
m1 = 0.0492	797.088 ± 0.73	791.73 ± 0.73	786.35 ± 0.74	780.945 ± 0.75	775.512 ± 0.76	770.049 ± 0.76	759.023 ± 0.78	–
m1 = 0.04923	–	–	–	–	–	–	–	1281.8 ± 1.4
m1 = 0.08198	–	–	–	–	–	–	–	1284 ± 1.4
m1 = 0.082	803.621 ± 0.72	798.268 ± 0.73	792.896 ± 0.73	787.511 ± 0.74	782.087 ± 0.75	776.641 ± 0.76	765.646 ± 0.77	–
m1 = 0.1087	809.018 ± 0.71	803.673 ± 0.72	798.312 ± 0.73	792.927 ± 0.73	787.516 ± 0.74	782.077 ± 0.75	771.11 ± 0.76	1285.8 ± 1.4
m1 = 0.135	814.36 ± 0.71	809.021 ± 0.71	803.671 ± 0.72	798.291 ± 0.73	792.889 ± 0.73	787.46 ± 0.74	776.511 ± 0.76	1287.5 ± 1.4
m1 = 0.1611	819.735 ± 0.7	814.406 ± 0.71	809.058 ± 0.71	803.686 ± 0.72	798.299 ± 0.73	792.88 ± 0.73	781.957 ± 0.75	1289.4 ± 1.4
m1 = 0.1844	824.54 ± 0.69	819.217 ± 0.7	813.878 ± 0.71	808.519 ± 0.71	803.134 ± 0.72	797.731 ± 0.73	786.838 ± 0.74	1290.9 ± 1.4
m1 = 0.2114	830.147 ± 0.69	824.83 ± 0.7	819.495 ± 0.7	814.141 ± 0.71	808.766 ± 0.72	803.366 ± 0.72	792.486 ± 0.74	1292.7 ± 1.4
m1 = 0.2353	835.248 ± 0.68	829.938 ± 0.69	824.608 ± 0.7	819.261 ± 0.7	813.893 ± 0.71	808.502 ± 0.72	797.637 ± 0.73	1294.1 ± 1.4
m1 = 0.2607	840.618 ± 0.68	835.309 ± 0.68	829.987 ± 0.69	824.647 ± 0.7	819.287 ± 0.7	813.905 ± 0.71	803.067 ± 0.72	1295.8 ± 1.4
